{
  "source": "PubChem BioAssay (NCI)",
  "note": "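A five-concentration, 48-hour dose response in 96-well plates underlies each endpoint, interpolated linearly between surrounding concentrations. At the TGI there is no net growth.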",
  "data": [
    {"tested_on": "SR leukemia", "assay": "DTP human tumour cell line panel, 48 h", "units": {"TGI": "µM"}, "values": [
      {"compound": "CC(C)(C)OC(=O)NCC(O)CNC(=O)OC(C)(C)C", "TGI": "> 100"},
      {"compound": "O=[N+]([O-])c1cc2oc(COc3ccccc3)nc2cc1Cl", "TGI": "> 100"},
      {"compound": "CC(C)(C)c1cc(C(P(=O)(c2ccccc2)c2ccccc2)P(=O)(c2ccccc2)c2ccccc2)cc(C(C)(C)C)c1O", "TGI": "> 8.37"},
      {"compound": "CCc1nc(N)nc(N)c1-c1ccc(Cl)c(Cl)c1", "TGI": "> 100"},
      {"compound": "NS(=O)(=O)c1nn2c(Br)c(-c3ccccc3)nc2s1", "TGI": "> 33.8"},
      {"compound": "CCN(CC)c1c(N(CC)CC)c(=O)c1=O", "TGI": "> 100"},
      {"compound": "CN(C)Cc1cc(C(=O)/C=C/c2ccc(Cl)cc2)cc(CN(C)C)c1O", "TGI": 45.7},
      {"compound": "COc1cc(-c2cc(=O)c3c(OC)c(OC)c(OC)c(OC)c3o2)c(OC)c(OC)c1OC", "TGI": "> 100"},
      {"compound": "COc1nc(C(=O)NNC(=O)c2nc(OC)c3ccccc3c2-c2ccccc2)c(-c2ccccc2)c2ccccc12", "TGI": "> 100"},
      {"compound": "COc1cc(/C=C2\\CCC(C)C3C2=NN(C(C)=O)C3c2cc(OC)c(OC)c(OC)c2)cc(OC)c1OC", "note": "(centres undefined)", "TGI": "> 100"},
      {"compound": "NC(=O)C(N)Cc1ccc(O)cn1", "note": "(centres undefined)", "TGI": "> 100"},
      {"compound": "COC(=O)C(C)(NC(=O)C(CC(=O)OC(C)(C)C)NC(=O)OC(C)(C)C)c1ccccc1", "note": "(centres undefined)", "TGI": "> 100"},
      {"compound": "COc1ccc2nc3ccc(OC)cc3c(S(=O)CCCl)c2c1", "note": "(centres undefined)", "TGI": "> 22.7"}
    ]},
    {"tested_on": "U251 CNS", "assay": "DTP human tumour cell line panel, 48 h", "units": {"TGI": "µM"}, "values": [
      {"compound": "O=Cc1ccc2c(c1)CC1(C2)Cc2ccc3c(c2C1)CCC3", "note": "(centres undefined)", "TGI": 22.7},
      {"compound": "C=C(C)C(CC=C(C)C)CC12CC(CC=C(C)C)C(C)(C)C(CC=C(C)C)(C(=O)C(Cc3ccc(O)c(O)c3)=C1O)C2=O", "note": "(centres undefined)", "TGI": "> 100"},
      {"compound": "CCC(=O)NC(Nc1cccc(F)c1C)(C(F)(F)F)C(F)(F)F", "TGI": "> 100"},
      {"compound": "CCCCCN=Cc1c(O)c(O)c(C(C)C)c2cc(C)c(-c3c(C)cc4c(C(C)C)c(O)c(O)c(C=NCCCCC)c4c3O)c(O)c12", "TGI": 18},
      {"compound": "CCc1nc(N)nc(N)c1-c1ccc2nn(-c3ccccc3)[n+]([O-])c2c1", "TGI": 22.1},
      {"compound": "O=C(O)/C=N\\Nc1nc2ccccc2[nH]1", "TGI": "> 100"},
      {"compound": "Nc1nc(N)c2[nH]c(CNc3ccc(C(=O)O)cc3)nc2n1", "TGI": "> 100"},
      {"compound": "CNn1c(-c2ccccc2)n[nH]c1=O", "TGI": "> 100"},
      {"compound": "O=c1[nH]c(-c2ccc3ccccc3c2)nc2ccccc12", "TGI": "> 100"},
      {"compound": "COc1ccc(CC2c3cc(Oc4cc(CC5c6cc(OC)c(OC)cc6CCN5C)ccc4O)c(OC)cc3CCN2C)cc1", "note": "(centres undefined)", "TGI": 11.9},
      {"compound": "COc1ccc(C(C)NNC(=O)c2ccncc2)c(OC)c1", "note": "(centres undefined)", "TGI": "> 100"},
      {"compound": "CC(C)(C)OC(=O)NCC(O)CNC(=O)OC(C)(C)C", "TGI": "> 100"},
      {"compound": "O=[N+]([O-])c1cc2oc(COc3ccccc3)nc2cc1Cl", "TGI": 52.5},
      {"compound": "CC(C)(C)c1cc(C(P(=O)(c2ccccc2)c2ccccc2)P(=O)(c2ccccc2)c2ccccc2)cc(C(C)(C)C)c1O", "TGI": 6.68},
      {"compound": "CCc1nc(N)nc(N)c1-c1ccc(Cl)c(Cl)c1", "TGI": "> 100"},
      {"compound": "NS(=O)(=O)c1nn2c(Br)c(-c3ccccc3)nc2s1", "TGI": 15.6},
      {"compound": "CCN(CC)c1c(N(CC)CC)c(=O)c1=O", "TGI": 55.6},
      {"compound": "CN(C)Cc1cc(C(=O)/C=C/c2ccc(Cl)cc2)cc(CN(C)C)c1O", "TGI": 28},
      {"compound": "COc1cc(-c2cc(=O)c3c(OC)c(OC)c(OC)c(OC)c3o2)c(OC)c(OC)c1OC", "TGI": "> 100"},
      {"compound": "COc1nc(C(=O)NNC(=O)c2nc(OC)c3ccccc3c2-c2ccccc2)c(-c2ccccc2)c2ccccc12", "TGI": "> 100"},
      {"compound": "COc1cc(/C=C2\\CCC(C)C3C2=NN(C(C)=O)C3c2cc(OC)c(OC)c(OC)c2)cc(OC)c1OC", "note": "(centres undefined)", "TGI": "> 100"},
      {"compound": "NC(=O)C(N)Cc1ccc(O)cn1", "note": "(centres undefined)", "TGI": "> 100"},
      {"compound": "COC(=O)C(C)(NC(=O)C(CC(=O)OC(C)(C)C)NC(=O)OC(C)(C)C)c1ccccc1", "note": "(centres undefined)", "TGI": "> 100"},
      {"compound": "COc1ccc2nc3ccc(OC)cc3c(S(=O)CCCl)c2c1", "note": "(centres undefined)", "TGI": "> 52.2"}
    ]},
    {"tested_on": "UO-31 renal", "assay": "DTP human tumour cell line panel, 48 h", "units": {"TGI": "µM"}, "values": [
      {"compound": "O=Cc1ccc2c(c1)CC1(C2)Cc2ccc3c(c2C1)CCC3", "note": "(centres undefined)", "TGI": 25},
      {"compound": "C=C(C)C(CC=C(C)C)CC12CC(CC=C(C)C)C(C)(C)C(CC=C(C)C)(C(=O)C(Cc3ccc(O)c(O)c3)=C1O)C2=O", "note": "(centres undefined)", "TGI": "> 100"},
      {"compound": "CCC(=O)NC(Nc1cccc(F)c1C)(C(F)(F)F)C(F)(F)F", "TGI": "> 100"},
      {"compound": "CCCCCN=Cc1c(O)c(O)c(C(C)C)c2cc(C)c(-c3c(C)cc4c(C(C)C)c(O)c(O)c(C=NCCCCC)c4c3O)c(O)c12", "TGI": 41.1},
      {"compound": "CCc1nc(N)nc(N)c1-c1ccc2nn(-c3ccccc3)[n+]([O-])c2c1", "TGI": 35.2},
      {"compound": "O=C(O)/C=N\\Nc1nc2ccccc2[nH]1", "TGI": "> 100"},
      {"compound": "Nc1nc(N)c2[nH]c(CNc3ccc(C(=O)O)cc3)nc2n1", "TGI": "> 100"},
      {"compound": "CNn1c(-c2ccccc2)n[nH]c1=O", "TGI": "> 100"},
      {"compound": "O=c1[nH]c(-c2ccc3ccccc3c2)nc2ccccc12", "TGI": 60.9},
      {"compound": "COc1ccc(CC2c3cc(Oc4cc(CC5c6cc(OC)c(OC)cc6CCN5C)ccc4O)c(OC)cc3CCN2C)cc1", "note": "(centres undefined)", "TGI": 11.2},
      {"compound": "COc1ccc(C(C)NNC(=O)c2ccncc2)c(OC)c1", "note": "(centres undefined)", "TGI": "> 100"},
      {"compound": "CC(C)(C)OC(=O)NCC(O)CNC(=O)OC(C)(C)C", "TGI": "> 100"},
      {"compound": "O=[N+]([O-])c1cc2oc(COc3ccccc3)nc2cc1Cl", "TGI": 66},
      {"compound": "CC(C)(C)c1cc(C(P(=O)(c2ccccc2)c2ccccc2)P(=O)(c2ccccc2)c2ccccc2)cc(C(C)(C)C)c1O", "TGI": 6.99},
      {"compound": "CCc1nc(N)nc(N)c1-c1ccc(Cl)c(Cl)c1", "TGI": "> 100"},
      {"compound": "NS(=O)(=O)c1nn2c(Br)c(-c3ccccc3)nc2s1", "TGI": 15.5},
      {"compound": "CCN(CC)c1c(N(CC)CC)c(=O)c1=O", "TGI": 12},
      {"compound": "CN(C)Cc1cc(C(=O)/C=C/c2ccc(Cl)cc2)cc(CN(C)C)c1O", "TGI": 19.9},
      {"compound": "COc1cc(-c2cc(=O)c3c(OC)c(OC)c(OC)c(OC)c3o2)c(OC)c(OC)c1OC", "TGI": 88.6},
      {"compound": "COc1nc(C(=O)NNC(=O)c2nc(OC)c3ccccc3c2-c2ccccc2)c(-c2ccccc2)c2ccccc12", "TGI": "> 100"},
      {"compound": "NC(=O)C(N)Cc1ccc(O)cn1", "note": "(centres undefined)", "TGI": "> 100"},
      {"compound": "COC(=O)C(C)(NC(=O)C(CC(=O)OC(C)(C)C)NC(=O)OC(C)(C)C)c1ccccc1", "note": "(centres undefined)", "TGI": "> 100"}
    ]}
  ]
}
